Data on two compounds can be found in patent US20250057848A1, “GAL475 COMPOSITIONS AND METHODS OF USE THEREOF” (NEURIM PHARMACEUTICALS (1991) LTD., priority 2023, published 2025).

The target of one series is 5-HT2B(h) (Homo sapiens (Human), UniProt P41595). The series can be described thus: Receptor binding assay, % inhibition of radioligand binding, 5-HT2B(h). Conditions: 30 micromolar GAL475; agonist radioligand; read-out: % inhibition of the binding of radioactively labelled ligand. As to the method: (§1) GAL475 (30 micromolar) was tested in multiple receptor binding assays. The binding was calculated as a % inhibition of the binding of a radioactively labelled ligand specific for each target.
(§2) However, the potency of GAL 475 at these receptors was lower than 1 micromolar and therefore not considered to be pharmacologically interesting. […] GAL475 was subsequently tested for PAM activity at the human NTS1 (FAST-0330I) and NTS2 (FAST-0331I) receptors, at 100-50,000 nanomolar concentrations. Agonist activity of GAL475 is expressed as a percentage of the activity of the reference agonist (Neurotensin) at its EC100 (maximal response) concentration. Antagonist activity of GAL475 is expressed as a percentage of the inhibition of reference agonist activity at its EC80 […] concentration. The assays were conducted with recombinant cell lines.

The next series concerns the target 5-HT5a(h) (Homo sapiens (Human), UniProt P47898). The series can be described thus: Receptor binding assay, % inhibition of radioligand binding, 5-HT5a(h). The following applies: 30 micromolar GAL475; agonist radioligand; read-out: % inhibition of the binding of radioactively labelled ligand. As to the method: as §1, §2
The target in another series is 5-HT7 (h) (Homo sapiens (Human), UniProt P34969). The series can be described thus: Receptor binding assay, % inhibition of radioligand binding, 5-HT7 (h). Conditions: 30 micromolar GAL475; agonist radioligand; read-out: % inhibition of the binding of radioactively labelled ligand. On the procedure: as §1, §2
For series [1], the system named is al adrenoreceptor (non-selective). The series can be described thus: Receptor binding assay, % inhibition of radioligand binding, al adrenoreceptor (non-selective). Conditions: 30 micromolar GAL475; antagonist radioligand. On the procedure:
as §1, §2

For a further series, the system named is Na+channel (site 2). The series can be described thus: Receptor binding assay, % inhibition of radioligand binding, Na+channel (site 2). The following applies: 30 micromolar GAL475; antagonist radioligand. As to the method: as §1, §2
In another series the target is human NTS1 (Homo sapiens (Human), UniProt P30989). The series can be described thus: Positive allosteric modulator (PAM) activity at human NTS1 (FAST-0330I), recombinant CHO-K1-mt aequorin cells. It counts as cell-based. Conditions: 100-50,000 nM.
Description: as §2
(§3) GAL475 (100-50,000 nM) was tested for positive allosteric modulator (PAM) activity at the human NTS1 (FAST-0330I) and NTS2 (FAST-0331I) receptors (Tables 2 and 3).

The next series concerns the target human NTS2 (Homo sapiens (Human), UniProt O95665). The series can be described thus: Positive allosteric modulator (PAM) activity at human NTS2 (FAST-0331I), recombinant CHO-K1-mt aequorin cells. In kind it is cell-based. Conditions: 100-50,000 nM.
Description: as §2, §3

A short description of series [2]: 28 days repeated oral dose with 14-days recovery in rats (body weight, food consumption, tolerability). It counts as in vivo, rat. The following applies: for overall body weight gain Day −1 to Day 28 compared to that of the controls: 80 mg/kg/day oral; for group mean body weight compared to the controls: >40 mg/kg/day oral, end of dosing phase (28 days). As to the method:
One hundred and forty-two (71/sex) rats were randomly assigned to 4 groups and given vehicle [2% (w/v) CMC-Na, 1% (v/v) Tween 80 in 0.1 M phosphate buffer at pH 7.4±0.2] or Gal-475*2HCl at 20, 40 or 80 mg/kg/day once daily for 28 days by the oral gavage route.

The nature of series [3]: 28 day repeated oral dose with 14-day recovery in Beagle dogs (body weight gain, food consumption). The following applies: for decrease in food consumption / decrease in body weight gain: 7.5, 15, or 30 mg/kg/day oral; for decrease in food consumption: dosing phase; for decrease in body weight gain: dosing phase up to 28 days. In kind it is in vivo, Beagle dog. On the procedure: Thirty-two (16/sex) dogs were randomly assigned to 4 groups and orally administered vehicle (2% (w/v) CMC-Na, 1% (v/v) Tween 80 in 0.1 M phosphate buffer at pH 7.4) or Gal-475*2HCl at 7.5, 15, or 30 mg/kg/day once daily for up to 28 days.

Series [4] in a line: Acute gastric emptying (charcoal slurry) in rats. It counts as in vivo, Sprague-Dawley rat. Conditions: 3 mg/kg IV. On the procedure:
Naive male Sprague-Dawley rats (239-297 g) were used to evaluate the effect on gastric emptying of a single dose of 3 mg/kg GAL-475 IV.
Rats were fasted 16-18 hours prior to the start of the experiment and then were given a bolus dose of either vehicle (1% tween-80 2% CMC) or GAL475 (3 mg/kg, IV) via the lateral tail vein. 5 minutes after dosing, rats were gavaged with a charcoal slurry (5 ml/kg, 10% charcoal in 2.5% Arabic gum from acacia tree) and then returned to their cages. 20 minutes after receiving the slurry, rats were euthanized using CO2. The stomachs were excised, weighed, emptied, washed and reweighed. Gastric content was calculated as the difference between full and empty weights. Increased gastric content was interpreted as a decrease in gastric emptying food retention).

Series [5] in a line: Phase 1 single escalating oral dose study in healthy male volunteers (body weight, tolerability). It counts as in vivo, human. On the procedure:
The effects of an oral dose of GAL-475 (capsules of 450 mg) in 12 healthy male volunteers was tested in a Phase 1, randomized, placebo-controlled, double-blind, first in man single escalating dose study.
The study drug (GAL475) at 50, 150, 450 mg dosages, or placebo were administered on the morning of Day 1. Subjects fasted for 8 hours prior to the intake of study drug or placebo and for at least 4 hours following dosing.
The subject's body weight was measured on day −1 and at the follow up visit (day 7) using a validated balance. Body weight was recorded with 1 decimal.

Setting [6] is: oral gavage once daily 28 days, 20, 40, or 80 mg/kg/day.
Where [7] appears, read: 450 mg single oral dose, day −1 to day 7.

Sequence of human NTS1 (P30989 whole entry): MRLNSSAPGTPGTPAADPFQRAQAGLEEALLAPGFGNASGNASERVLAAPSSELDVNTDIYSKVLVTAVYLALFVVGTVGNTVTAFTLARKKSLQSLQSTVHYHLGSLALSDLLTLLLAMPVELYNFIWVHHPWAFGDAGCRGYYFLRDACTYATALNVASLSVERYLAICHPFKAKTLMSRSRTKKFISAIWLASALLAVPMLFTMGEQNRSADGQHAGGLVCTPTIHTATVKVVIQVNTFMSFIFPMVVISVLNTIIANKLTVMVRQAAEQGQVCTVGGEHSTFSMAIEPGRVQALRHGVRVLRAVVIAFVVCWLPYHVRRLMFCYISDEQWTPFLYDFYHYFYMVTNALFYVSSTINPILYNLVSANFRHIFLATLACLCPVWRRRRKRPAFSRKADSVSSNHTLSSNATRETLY
Sequence of 5-HT2B(h) (P41595 whole entry, the tested form may be a part): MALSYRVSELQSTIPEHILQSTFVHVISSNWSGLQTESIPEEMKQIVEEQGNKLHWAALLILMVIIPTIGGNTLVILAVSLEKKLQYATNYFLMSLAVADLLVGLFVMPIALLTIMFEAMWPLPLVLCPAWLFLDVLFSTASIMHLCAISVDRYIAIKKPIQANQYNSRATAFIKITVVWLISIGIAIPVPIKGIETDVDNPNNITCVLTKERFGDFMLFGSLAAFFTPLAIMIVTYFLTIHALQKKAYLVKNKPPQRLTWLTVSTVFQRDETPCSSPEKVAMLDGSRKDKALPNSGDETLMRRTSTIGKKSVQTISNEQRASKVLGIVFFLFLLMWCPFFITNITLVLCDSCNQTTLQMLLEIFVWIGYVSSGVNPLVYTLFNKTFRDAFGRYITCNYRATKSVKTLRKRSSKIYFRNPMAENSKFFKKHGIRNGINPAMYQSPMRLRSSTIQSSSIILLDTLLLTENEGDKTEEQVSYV
Sequence of 5-HT7 (h) (P34969 whole entry, the tested form may be a part): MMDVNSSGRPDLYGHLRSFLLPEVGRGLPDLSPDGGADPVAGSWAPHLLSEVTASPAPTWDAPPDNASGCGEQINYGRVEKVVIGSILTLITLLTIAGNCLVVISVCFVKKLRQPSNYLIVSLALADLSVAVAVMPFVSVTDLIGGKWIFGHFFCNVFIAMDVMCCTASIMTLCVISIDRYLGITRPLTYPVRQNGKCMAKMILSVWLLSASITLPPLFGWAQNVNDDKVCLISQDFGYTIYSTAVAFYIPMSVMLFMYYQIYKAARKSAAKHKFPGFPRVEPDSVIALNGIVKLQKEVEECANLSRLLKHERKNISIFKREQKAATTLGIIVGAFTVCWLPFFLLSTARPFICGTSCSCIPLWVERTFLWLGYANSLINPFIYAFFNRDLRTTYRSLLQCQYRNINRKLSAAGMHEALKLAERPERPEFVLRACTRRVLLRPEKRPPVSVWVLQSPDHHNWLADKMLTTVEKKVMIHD
Sequence of 5-HT5a(h) (P47898 whole entry, the tested form may be a part): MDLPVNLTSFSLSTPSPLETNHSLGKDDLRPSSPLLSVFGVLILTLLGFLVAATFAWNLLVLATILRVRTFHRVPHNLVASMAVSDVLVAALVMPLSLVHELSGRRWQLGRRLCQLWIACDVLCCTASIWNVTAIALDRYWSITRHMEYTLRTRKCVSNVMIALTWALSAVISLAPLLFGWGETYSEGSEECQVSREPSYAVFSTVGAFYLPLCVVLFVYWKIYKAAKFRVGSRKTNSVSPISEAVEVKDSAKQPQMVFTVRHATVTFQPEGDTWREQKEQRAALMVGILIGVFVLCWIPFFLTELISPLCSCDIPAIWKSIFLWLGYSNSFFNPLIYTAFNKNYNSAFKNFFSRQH
Sequence of human NTS2 (O95665 whole entry): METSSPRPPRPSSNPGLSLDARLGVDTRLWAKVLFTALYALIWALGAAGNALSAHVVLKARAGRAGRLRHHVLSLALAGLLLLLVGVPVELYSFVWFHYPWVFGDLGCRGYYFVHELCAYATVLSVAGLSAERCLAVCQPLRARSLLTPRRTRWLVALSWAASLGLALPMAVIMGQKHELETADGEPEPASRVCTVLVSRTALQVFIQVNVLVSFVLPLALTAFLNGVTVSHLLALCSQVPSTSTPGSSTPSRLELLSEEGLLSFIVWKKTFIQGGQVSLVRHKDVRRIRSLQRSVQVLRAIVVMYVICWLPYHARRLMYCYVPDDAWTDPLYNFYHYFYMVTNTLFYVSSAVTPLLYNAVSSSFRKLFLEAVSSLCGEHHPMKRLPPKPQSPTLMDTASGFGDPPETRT

Consider `CCCNc1nc(NC)nc2c(NCC(C)(C)O)nc(NC)nc12` [GAL475, 1-(2,6-Bis-methylamino-8-propylamino-pyrimido[5,4-d]pyrimidin-4-ylamino)-2-methyl-propan-2-ol], for which the inhibition (usually the relative decrease from the control value, in per cent) at 30 µM came out at 75% at 5-HT2B(h), 50.6% on 5-HT5a(h) and 79% at 5-HT7 (h). Also, the “% inhibition of the binding of radioactively labelled ligand” value in series [1] came to 67.1%; in the series on Na+channel (site 2) it was 75.1%. For the same compound, the “Hill Coefficient” value at human NTS1 is reported as 11.62. In addition, the “% Activation Average at maximal concentration” value at human NTS1 (CHO-K1-mt aequorin) is 26.48%; at human NTS2, 0.21%. For the same compound, the concentration giving a half-maximal response (EC50) (in general, the concentration giving half of the maximal effect) on human NTS1 (CHO-K1-mt aequorin) was determined as 355 nM. In addition, in [2] (40 mg/Kg body weight per day, 28 days), the “weight loss compared to vehicle” value was “meaningful weight loss”. The “body weight gain during recovery phase compared to controls” value in [2] (80 mg/kg/day, 2 weeks recovery phase) is “comparable or greater body weight gain”. Besides, in series [2] (both sexes, >40 mg/kg/day, dosing phase), the “group mean food consumption compared with control group” value is listed as “significant reduced”. For the same compound, the “food intake at the end of recovery phase” value in series [2] (end of recovery phase) is recorded as “reversed”. The “overall body weight gain Day −1 to Day 28 compared to that of the controls” value in series [2] (females) stood at 79%; in [2] (males), 71%. For the same compound, the “group mean body weight compared to the controls” value in [2] (females) was −4.70%; in series [2] (males), −7.35%. Also, the “test article-related adverse effects in clinical signs, food consumption, clinical pathology, or pathology” value in series [2] (setting [6]) was “no test article-related adverse effects”. The tolerability entry is reported as “well tolerated” in series [2] (setting [6]) and “well tolerated except for mild headaches” in series [5] (single oral dose 50, 150, 450 mg). Also, the “decrease in body weight compared to vehicle” value in series [3] (28 days) is given as 25%. Also, the “food consumption compared to vehicle” value in [3] (28 days) was “dramatic decrease”. The “gastric emptying compared to vehicle” value in [4] (p<0.05) is listed as “significantly decreased”. The “gastric content retention higher compared to vehicle controls” value in series [4] (up to 25 minutes after administration) is given as “up to 105%”. Further, the “subjects with mild headaches on the day of capsule intake” value is 2 of the 6 in [5] (50 mg single oral dose), 0 of the 6 in series [5] (150 mg single oral dose) and 5 of the 6 in [5] (450 mg single oral dose). Besides, in series [5] (setting [7]), the “change in body weight, average” value is -0.6 kg. In addition, the “change in body weight, range” value in series [5] (setting [7]) is listed as −0.1 to −1.6 kg.

As to `CCCNc1nc(NC)nc2c(NCC(C)(C)O)nc(NC)nc12.Cl.Cl` [Gal-475*2HCl, 1-(2,6-Bis-methylamino-8-propylamino-pyrimido[5,4-d]pyrimidin-4-ylamino)-2-methyl-propan-2-ol bis hydrochloride], the “decrease in food consumption” value in [3] (females) is not above 98%; in [3] (males), “up to 81%”. The “decrease in body weight gain” value in series [3] (females) was not above 29.9%; in [3] (males), “up to 22.7%”. The “body weight gain and food consumption during the recovery phase” value in series [3] (recovery phase) is given as “comparable with the control”.
